The text below walks through data of US20260325561A1, “4'-SUBSTITUTED NUCLEOSIDES AND NUCLEOTIDES AS ANTIVIRAL AGENTS” (THE SCRIPPS RESEARCH INSTITUTE, priority 2023, published 2026).

One data set deals with SARS-CoV-2. The experiment in a line: microbe, parasite or virus in culture. Format: cell-based, SARS-CoV-2 strain USA-WA1/2020. To be noted: Severe acute respiratory syndrome coronavirus 2, HeLa-ACE2, 24 h, read-out: SARS-CoV-2 / HeLa-ACE2 EC50.
The next data set relates to HRV 14. The experiment in a line: microbe, parasite or virus in culture. Format: cell-based, Human Rhinovirus 14 strain 1059. The note with it: Rhinovirus B, H1-HeLa, 48 h, read-out: HRV / H1 HeLa B 14 EC50.
In a further data set the test system is DENV-2. The experiment in a line: microbe, parasite or virus in culture. The note with it: Dengue virus, DENV2, HepG2, 24 h, read-out: DENV-2 / HepG2 EC50. Format: cell-based, DENV-2 16681.
The next data set concerns YFV. The experiment in a line: microbe, parasite or virus in culture. To be noted: Yellow fever virus, HepG2, 24 h, read-out: YFV / HepG2 EC50. Format: cell-based, YFV strain 17D.
A short description of data set [1]: in vitro. To be noted: human, hep2 cells.
The nature of data set [2]: in vitro. To be noted: human, hepg2 cells.
A short description of data set [3]: in vitro. The note with it: human, hela-ace2 cells.
In the next data set the test system is RSV A2. The experiment in a line: microbe, parasite or virus in culture. Format: cell-based. To be noted: human respiratory syncytial virus, HEp-2, 72 h, read-out: RSV A2 / Hep2 EC50.
The subject of a further data set is ZIKV. Briefly: microbe, parasite or virus in culture. Format: cell-based, ZIKV MR766. To be noted: Zika virus, HepG2, 24 h, read-out: ZIKV / HepG2 EC50.
Data set [4] in a line: in vitro. The note with it: human, h1 hela cells.
A further data set is described as follows: Cytotoxicity, HFF. The note with it: human, hff cells; read-out: HCMV/HFF CC50. Format: cell-based.
The test system of a further data set is HCoV-OC43. Briefly: microbe, parasite or virus in culture. Format: cell-based, Human Coronavirus. To be noted: Betacoronavirus 1, OC43, HCT-8, 48 h, read-out: HCoV-OC43/HCT-8 EC50.
The next data set deals with HCoV-229E. The experiment in a line: microbe, parasite or virus in culture. Format: cell-based. To be noted: Human coronavirus 229E, MRC5, 120 h, read-out: HCoV-229E/MRC5 EC50.
Another data set relates to HRV 16. The experiment in a line: microbe, parasite or virus in culture. Format: cell-based, Human Rhinovirus 16 strain 11757. The note with it: Rhinovirus A, H1-HeLa, 48 h, read-out: HRV / H1 HeLa A16 EC50.
Data set [5] is described as follows: in vitro. To be noted: human, hct-8 cells.
A further data set has as its system HCMV. Briefly: HCMV/HFF antiviral assay. Format: cell-based. To be noted: Human betaherpesvirus 5, HFF.
The nature of data set [6]: in vitro. To be noted: human, mrc5 cells.
In the next data set the test system is CHIKV. Briefly: microbe, parasite or virus in culture. Format: cell-based, CHIKV strain 181/25. To be noted: Chikungunya virus, HepG2, 24 h, read-out: CHIKV / HepG2 EC50.

Bounds are passed on as bounds.

Consider `OC[C@]1(F)O[C@@H](n2ccc3c(Cl)ncnc32)[C@H](O)[C@@H]1O` [Example 5, (2R,3S,4R,5R)-5-(4-chloro-7H-pyrrolo[2,3-d]pyrimidin-7-yl)-2-fluoro-2-(hydroxymethyl)tetrahydrofuran-3,4-diol], for which the EC50 in the data set on SARS-CoV-2 was more than 10 µM; with HRV 14, 1 to 10 µM; with DENV-2 it was 0.1 to 1 µM; in the data set on YFV, 1 to 10 µM; in the data set with RSV A2, more than 10 µM; in the data set on ZIKV it was 1 to 10 µM. Moreover, the CC50 in the data set “in vitro [1]” and in the data set “in vitro [4]” was more than 99 µM each time. In the data set “in vitro [2]”, the CC50 at 72 h is more than 99 µM. For the same molecule, the CC50 at 24 h in “in vitro [3]” was more than 99 µM.
For the molecule `NC(=O)c1cn([C@@H]2O[C@](F)(CO)[C@@H](O)[C@H]2O)c2ncnc(N)c12` [Example 14, 4-amino-7-((2R,3R,4S,5S)-5-fluoro-3,4-dihydroxy-5-(hydroxymethyl)tetrahydrofuran-2-yl)-7H-pyrrolo[2,3-d]pyrimidine-5-carboxamide], the CC50 fell in the range of 1 to 10 µM in “Cytotoxicity, HFF”; 1 to 10 µM in the data set “in vitro [1]”; 1 to 10 µM in the data set “in vitro [5]”; 1 to 10 µM in the data set “in vitro [6]”; 1 to 10 µM in the data set “in vitro [4]”. Also, the EC50 is 0.1 to 1 µM in the data set on HCoV-OC43; 0.1 to 1 µM in the data set with SARS-CoV-2; more than 10 µM with HRV 14; less than 0.1 µM with DENV-2; more than 10 µM in the data set with HCoV-229E; more than 10 µM in the data set on HRV 16. In addition, the EC50 is less than 0.1 µM in the data set on RSV A2 and 0.1 to 1 µM in the data set on HCMV. The molecule also gave a CC50 at 72 h in “in vitro [2]” of less than 1 µM. Also, the CC50 at 24 h in “in vitro [3]” is less than 1 µM.
Consider `Nc1ncnc2c1c(F)cn2[C@@H]1O[C@](F)(CO)[C@@H](O)[C@H]1O` [Example 15, (2S,3S,4R,5R)-5-(4-amino-5-fluoro-7H-pyrrolo[2,3-d]pyrimidin-7-yl)-2-fluoro-2-(hydroxymethyl)tetrahydrofuran-3,4-diol], for which the CC50 in the data set “Cytotoxicity, HFF” was 1 to 10 µM; in “in vitro [1]”, 1 to 10 µM; in “in vitro [5]”, less than 1 µM; in “in vitro [6]”, 1 to 10 µM; in the data set “in vitro [4]”, less than 1 µM. Besides, the EC50 in the data set with HCoV-OC43 is less than 0.1 µM; in the data set with SARS-CoV-2, less than 0.1 µM; in the data set with HRV 14, more than 10 µM; in the data set on DENV-2, less than 0.1 µM; in the data set on HCoV-229E, 0.1 to 1 µM; with HRV 16, less than 0.1 µM. Also, the EC50 in the data set on RSV A2 is more than 10 µM; with HCMV, 1 to 10 µM. In the data set “in vitro [2]”, this molecule registered a CC50 at 72 h of less than 1 µM. For the same molecule, in “in vitro [3]”, the CC50 at 24 h is less than 1 µM.
Regarding `Nc1nc2c(ncn2[C@H]2C[C@H](O)[C@@](F)(CO)O2)c(=O)[nH]1` [Example 40, 2-amino-9-((2R,4S,5S)-5-fluoro-4-hydroxy-5-(hydroxymethyl)tetrahydrofuran-2-yl)-1,9-dihydro-6H-purin-6-one], the EC50 in the data set on SARS-CoV-2, with DENV-2, in the data set with YFV and with ZIKV was more than 10 µM throughout. This molecule also had a CC50 at 72 h in the data set “in vitro [2]” of more than 99 µM. This molecule had a CC50 at 24 h in “in vitro [3]” of more than 99 µM.
Turning to `OC[C@@]1(F)O[C@@H](n2ccc3c(F)ncnc32)[C@H](O)[C@@H]1O` [Example 13, (2S,3S,4R,5R)-2-fluoro-5-(4-fluoro-7H-pyrrolo[2,3-d]pyrimidin-7-yl)-2-(hydroxymethyl)tetrahydrofuran-3,4-diol], the CC50 in “Cytotoxicity, HFF” is 10 to 99 µM; in “in vitro [1]” it was 10 to 99 µM; in the data set “in vitro [5]”, 10 to 99 µM; in “in vitro [6]”, more than 99 µM; in “in vitro [4]” it was 10 to 99 µM. Besides, the EC50 in the data set with HCoV-OC43 is 1 to 10 µM; in the data set on SARS-CoV-2 it was 0.1 to 1 µM; in the data set with HRV 14, 1 to 10 µM; with DENV-2, less than 0.1 µM; in the data set with HCoV-229E, more than 10 µM; with HRV 16, 0.1 to 1 µM. For the same molecule, the EC50 was 0.1 to 1 µM in the data set on RSV A2, 0.1 to 1 µM with CHIKV and more than 10 µM with HCMV. The molecule also gave a CC50 at 72 h in the data set “in vitro [2]” of 1 to 10 µM. In addition, the CC50 at 24 h in the data set “in vitro [3]” was 10 to 99 µM.
Consider `Nc1ncnc2c1c(Cl)cn2[C@@H]1O[C@](F)(CO)[C@@H](O)[C@H]1O` [Example 33, (2S,3S,4R,5R)-5-(4-amino-5-chloro-7H-pyrrolo[2,3-d]pyrimidin-7-yl)-2-fluoro-2-(hydroxymethyl)tetrahydrofuran-3,4-diol], for which the CC50 in the data set “Cytotoxicity, HFF” was 10 to 99 µM; in “in vitro [1]”, 10 to 99 µM; in the data set “in vitro [5]”, less than 1 µM; in the data set “in vitro [6]” it was 10 to 99 µM; in the data set “in vitro [4]”, 1 to 10 µM. The EC50 in the data set on HCoV-OC43 is 0.1 to 1 µM; with SARS-CoV-2, less than 0.1 µM; in the data set with HRV 14, more than 10 µM; in the data set with DENV-2 it was less than 0.1 µM; with HCoV-229E, more than 10 µM; in the data set on HRV 16, more than 10 µM. In addition, the figures for the EC50 in the data set with RSV A2 and with HCMV were less than 0.1 µM and 0.1 to 1 µM, respectively. In “in vitro [2]”, the CC50 at 72 h is less than 1 µM. Further, the CC50 at 24 h in “in vitro [3]” fell in the range of 1 to 10 µM.
With `CC(C)OC(=O)[C@H](C)N[P@](=O)(OC[C@@]1(F)O[C@@H](n2ccc3c(N)ncnc32)[C@H](O)[C@@H]1O)Oc1ccccc1` [Example 48, isopropyl ((S)-(((2S,3S,4R,5R)-5-(4-amino-7H-pyrrolo[2,3-d]pyrimidin-7-yl)-2-fluoro-3,4-dihydroxytetrahydrofuran-2-yl)methoxy)(phenoxy)phosphoryl)-L-alaninate], the EC50 lay within 1 to 10 µM in the data set on SARS-CoV-2; 1 to 10 µM in the data set with HRV 14; 0.1 to 1 µM with DENV-2; 1 to 10 µM with YFV; 1 to 10 µM with HRV 16; 1 to 10 µM in the data set on ZIKV. The molecule also had a CC50 at 72 h in the data set “in vitro [2]” of 10 to 99 µM. In addition, the CC50 at 24 h in the data set “in vitro [3]” fell in the range of 10 to 99 µM. The CC50 in the data set “in vitro [4]” was 10 to 99 µM.
`COc1ncnc2c1c(F)cn2[C@@H]1O[C@](F)(CO)[C@@H](O)[C@H]1O` [Example 22, (2S,3S,4R,5R)-2-fluoro-5-(5-fluoro-4-methoxy-7H-pyrrolo[2,3-d]pyrimidin-7-yl)-2-(hydroxymethyl)tetrahydrofuran-3,4-diol]: the CC50 is more than 99 µM in the data set “Cytotoxicity, HFF”; 10 to 99 µM in “in vitro [1]”; 10 to 99 µM in the data set “in vitro [4]”. In addition, the EC50 in the data set with SARS-CoV-2 is 1 to 10 µM; in the data set with HRV 14 it was more than 10 µM; in the data set on DENV-2, 0.1 to 1 µM; in the data set with YFV it was 0.1 to 1 µM; with HRV 16, more than 10 µM; in the data set on RSV A2 it was more than 10 µM. Moreover, the EC50 in the data set with ZIKV and in the data set on HCMV was 1 to 10 µM throughout. The CC50 at 72 h in the data set “in vitro [2]” fell in the range of 1 to 10 µM. Also, the CC50 at 24 h in the data set “in vitro [3]” lay in the range of 1 to 10 µM.
Take `CNc1ncnc2c1c(F)cn2[C@@H]1O[C@](F)(CO)[C@@H](O)[C@H]1O` [Example 35, (2S,3S,4R,5R)-2-fluoro-5-(5-fluoro-4-(methylamino)-7H-pyrrolo[2,3-d]pyrimidin-7-yl)-2-(hydroxymethyl)tetrahydrofuran-3,4-diol]: the EC50 in the data set on SARS-CoV-2 is more than 10 µM; with HRV 14, more than 10 µM; in the data set with DENV-2 it was more than 10 µM; in the data set on YFV, 1 to 10 µM; with RSV A2, more than 10 µM; in the data set with ZIKV, more than 10 µM. Further, the CC50 in “in vitro [1]” and in the data set “in vitro [4]” was 10 to 99 µM each time. In “in vitro [2]”, the CC50 at 72 h lay within 10 to 99 µM. The same molecule came in with a CC50 at 24 h in the data set “in vitro [3]” of more than 99 µM.
As for `Nc1ncnc2c1ccn2[C@@H]1O[C@@](CO)(CF)[C@@H](O)[C@H]1O` [Example 20, (2R,3S,4R,5R)-5-(4-amino-7H-pyrrolo[2,3-d]pyrimidin-7-yl)-2-(fluoromethyl)-2-(hydroxymethyl)tetrahydrofuran-3,4-diol], the CC50 was more than 99 µM in “Cytotoxicity, HFF”; 10 to 99 µM in the data set “in vitro [1]”; more than 99 µM in “in vitro [4]”. The EC50 in the data set with SARS-CoV-2, in the data set on HRV 14, in the data set on DENV-2, in the data set with HRV 16, in the data set with RSV A2 and in the data set with CHIKV was more than 10 µM in each case. The EC50 in the data set with HCMV was more than 10 µM. In “in vitro [2]”, the CC50 at 72 h is more than 99 µM. Also, in “in vitro [3]”, the CC50 at 24 h is 10 to 99 µM.
